Like-named read-outs stand apart in the source and are kept apart here.
Test system: IL-1β production in PMA-differentiated THP-1 cells
Experiment: IL-1β production in PMA-differentiated THP-1 cells stimulated with gramicidin (hTHP-1 assay, 2% fetal bovine serum; Procedures 1-3)
Format: cell-based, human
Method: The following protocol is suitable for testing the activity of the compounds disclosed herein.
Procedure 1: IL-1β Production in PMA-Differentiated THP-1 Cells Stimulated with Gramicidin.
THP-1 cells were purchased from the American Type Culture Collection and sub-cultured according to instructions from the supplier. Cells were cultured in complete RPMI 1640 (containing 10% heat inactivated FBS, penicillin (100 units/ml) and streptomycin (100 μg/ml)), and maintained in log phase prior to experimental setup. Prior to the experiment, compounds were dissolved in dimethyl sulfoxide (DMSO) to generate a 30 mM stock. The compound stock was first pre-diluted in DMSO to 3, 0.34, 0.042 and 0.0083 mM intermediate concentrations and subsequently spotted using Echo550 liquid handler into an empty 384-well assay plate to achieve desired final concentration (e.g. 100, 33, 11, 3.7, 1.2, 0.41, 0.14, 0.046, 0.015, 0.0051, 0.0017 μM). DMSO was backfilled in the plate to achieve a final DMSO assay concentration of 0.37%. The plate was then sealed and stored at room temperature until required.
THP-1 cells were treated with PMA (Phorbol 12-myristate 13-acetate) (20 ng/ml) for 16-18 hours. On the day of the experiment the media was removed and adherent cells were detached with trypsin for 5 minutes. Cells were then harvested, washed with complete RPMI 1640, spun down, and resuspended in RPMI 1640 (containing 2% heat inactivated FBS, penicillin (100 units/ml) and streptomycin (100 μg/ml). The cells were plated in the 384-well assay plate containing the spotted compounds at a density of 50,000 cells/well (final assay volume 50 μl). Cells were incubated with compounds for 1 hour and then stimulated with gramicidin (5 μM) (Enzo) for 2 hours. Plates were then centrifuged at 340 g for 5 min. Cell free supernatant (40 μL) was collected using a 96-channel PlateMaster (Gilson) and the production of IL-1β was evaluated by HTRF (cisbio). The plates were incubated for 18 h at 4° C. and read using the preset HTRF program (donor emission at 620 nm, acceptor emission at 668 nm) of the SpectraMax i3x spectrophotometer (Molecular Devices, software SoftMax 6). A vehicle only control and a dose titration of CRID3 (100-0.0017 μM) were run concurrently with each experiment.
Procedure 2: IL-1β Production in PMA-Differentiated THP-1 Cells Stimulated with Gramicidin.
THP-1 cells were purchased from the American Type Culture Collection and sub-cultured according to instructions from the supplier. Prior to experiments, cells were cultured in complete RPMI 1640 (containing 10% heat inactivated FBS, penicillin (100 units/ml) and streptomycin (100 μg/ml)), and maintained in log phase prior to experimental setup. Prior to the experiment THP-1 were treated with PMA (Phorbol 12-myristate 13-acetate) (20 ng/ml) for 16-18 hours. Compounds were dissolved in dimethyl sulfoxide (DMSO) to generate a 30 mM stock. On the day of the experiment the media was removed and adherent cells were detached with trypsin for 5 minutes. Cells were then harvested, washed with complete RPMI 1640, spun down, resuspended in RPMI 1640 (containing 2% heat inactivated FBS, penicillin (100 units/ml) and streptomycin (100 μg/ml) . The cells were plated in a 384-well plate at a density of 50,000 cells/well (final assay volume 50 μl). Compounds were first dissolved in assay medium to obtain a 5× top concentration of 500 μM. 10 step dilutions (1:3) were then undertaken in assay medium containing 1.67% DMSO. 5× compound solutions were added to the culture medium to achieve desired final concentration (e.g. 100, 33, 11, 3.7, 1.2, 0.41, 0.14, 0.046, 0.015, 0.0051, 0.0017 μM). Final DMSO concentration was at 0.37%. Cells were incubated with compounds for 1 hour and then stimulated with gramicidin (5 μM) (Enzo) for 2 hours. Plates were then centrifuged at 340 g for 5 min. Cell free supernatant (40 μL) was collected using a 96-channel PlateMaster (Gilson) and the production of IL-1β was evaluated by HTRF (cisbio). […]

[1] = Homo sapiens, THP-1, hTHP-1 assay containing 2% fetal bovine serum, Table B2, class symbols, read-out: IC50
[2] = Homo sapiens, THP-1, hTHP-1 assay containing 2% fetal bovine serum, Table B2, given as bound, read-out: IC50

| IC50 [1] | SMILES | further results |
| --- | --- | --- |
| 40 to 200 nM | C[C@@](O)(COCCO)c1ncc(S(N)(=O)=NC(=O)Nc2c3c(cc4c2CCC4)CCC3)s1 (stereo partly drawn) [Example 677, N′-((1,2,3,5,6,7-hexahydro-s-indacen-4-yl)carbamoyl)-2-((R)-2-hydroxy-1-(2-hydroxyethoxy)propan-2-yl)thiazole-5-sulfonimidamide] |  |
| 40 to 200 nM | CNCc1cc(F)c(S(N)(=O)=NC(=O)Nc2c3c(cc4c2CC4)CCC3)s1 (stereo not drawn) [Example 669, 3-Fluoro-5-((methylamino)methyl)-N′-((2,4,5,6-tetrahydro-1H-cyclobuta[f]inden-3-yl)carbamoyl)thiophene-2-sulfonimidamide] |  |
| 200 to 1000 nM | CN(Cc1ccc([S@](N)(=O)=NC(=O)Nc2c3c(cc4c2CCC4)CCC3)cc1)C1CCC1 [Example 709, (R)-4-((cyclobutyl(methyl)amino)methyl)-N′-((1,2,3,5,6,7-hexahydro-s-indacen-4-yl)-carbamoyl)benzenesulfonimidamide] |  |

The next lines start with the compound.

| SMILES | IC50 [1] | further results |
| --- | --- | --- |
| CC(C)(O)c1csc(S(N)(=O)=NC(=O)Nc2c3c(cc4c2CC4)CCC3)c1 (stereo not drawn) [Example 467, 4-(2-Hydroxypropan-2-yl)-N′-((2,4,5,6-tetrahydro-1H-cyclobuta[f]inden-3-yl)carbamoyl)thiophene-2-sulfonimidamide] | 40 to 200 nM |  |
| CC(C)(O)c1cc(F)c(S(N)(=O)=NC(=O)Nc2c3c(cc4c2CCC4=O)CCC3)s1 (single isomer, unassigned) [Example 600, (R) or (S)-3-fluoro-5-(2-hydroxypropan-2-yl)-N′-((1-oxo-1,2,3,5,6,7-hexahydro-s-indacen-4-yl)carbamoyl)thiophene-2-sulfonimidamide] |  | IC50 (hTHP-1 assay containing 2% fetal bovine serum, Table B2, class symbols, read-out: IC50): 200 to 1000 nM |
| NS(=O)(=NC(=O)Nc1c2c(cc3c1CCC3)CCC2)c1ccc(C2CCNC2)cc1F (single isomer, unassigned) [Example 623, (S,S) or (R,S)-2-fluoro-N′-((1,2,3,5,6,7-hexahydro-s-indacen-4-yl)carbamoyl)-4-(- pyrrolidin-3-yl) benzenesulfonimidamide] |  | IC50 (hTHP-1 assay containing 2% fetal bovine serum, Table B2, given as bound, read-out: IC50): > 30000 nM |
| CC(C)(O)c1csc(S(N)(=O)=NC(=O)Nc2c3c(cc4c2C(=O)CC4)CCC3)c1 (stereo not drawn) [Example 466, 4-(2-Hydroxypropan-2-yl)-N′-((3-oxo-1,2,3,5,6,7-hexahydro-s-indacen-4-yl)carbamoyl)thiophene-2-sulfonimidamide] | 200 to 1000 nM |  |
| CN(Cc1ccc(S(N)(=O)=NC(=O)Nc2c3c(cc4c2CCC4)CCC3)cc1)CC(F)(F)F (single isomer, unassigned) [Example 608, (R) or (R)-N′-((1,2,3,5,6,7-hexahydro-s-indacen-4-yl)carbamoyl)-4-((methyl(2,2,2-trifluoroethyl)amino)methyl) benzenesulfonimidamide] |  | IC50 [2]: > 30000 nM |
| CN(C)Cc1ccc([S@@](N)(=O)=NC(=O)Nc2c3c(cc4c2CCC4)CCC3)s1 [Compound 889b] | 200 to 1000 nM |  |
| NS(=O)(=NC(=O)Nc1c2c(cc3c1CCC3)CCC2)c1ccc(-c2ccccc2)s1 (single isomer, unassigned) [Example 800, (S) or (R)-N′-((1,2,3,5,6,7-hexahydro-s-indacen-4-yl)carbamoyl)-5-phenylthiophene-2-sulfonimidamide] |  | IC50 (Table B3, hTHP-1 assay containing 2% fetal bovine serum, gramicidin stimulation, IL-1β readout, read-out: hTHP-1 IC50): > 30000 nM |
| CN(Cc1ccc(S(N)(=O)=NC(=O)Nc2c3c(cc4c2CC4)CCC3)c(F)c1)C1CCC1 (stereo not drawn) [Example 727, 4-((cyclobutyl(methyl)amino)methyl)-2-fluoro-N′-((2,4,5,6-tetrahydro-1H-cyclobuta[f]inden-3-yl)carbamoyl)benzenesulfonimidamide] |  | IC50 (Homo sapiens, THP-1, Table B3, hTHP-1 assay containing 2% fetal bovine serum, gramicidin stimulation, IL-1β readout, read-out: hTHP-1 IC50): 1000 to 5000 nM |
| NS(=O)(=NC(=O)Nc1c2c(cc3c1CCC3)CCC2)c1ccccc1 (single isomer, unassigned) [Example 612, (R) or (S)-N′-((1,2,3,5,6,7-hexahydro-s-indacen-4-yl)carbamoyl) benzenesulfonimidamide] |  | IC50 [2]: > 30000 nM |
